Data taken from paper doi:10.1101/2022.07.25.501355v1, “Building artificial plant cell wall on lipid bilayer by assembling polysaccharides and engineered proteins” (biorxiv, 2022).

Experiments:
diCBM77Rf = target: T1, diCBM77Rf (Ruminococcus flavefaciens, UniProt A0A1A9TA81); assay: isothermal titration calorimetry; type: binding; settings: 25 °C; 20 mM Tris pH 7.5, 100 mM NaCl (ligand in 20 mM Tris pH 7.5); N fixed at 2 in the fit; no full sigmoid; ligand mainly DP7 with some DP8
T1 construct: CBM77 domain only; N-terminal His-tag cut by TEV; E. coli BL21(DE3)
T1 sequence (A0A1A9TA81 2-115): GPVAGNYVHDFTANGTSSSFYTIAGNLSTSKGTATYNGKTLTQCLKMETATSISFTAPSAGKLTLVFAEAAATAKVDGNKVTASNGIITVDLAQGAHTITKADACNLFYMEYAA
Text: isothermal titration calorimetry on diCBM77Rf

Janus lectin RSL-CBM77Rf = type: binding, Ralstonia nicotianae / Ruminococcus flavefaciens; settings: 25 °C; 20 mM Tris pH 7.5, 100 mM NaCl (ligand in 20 mM Tris pH 7.5); site on CBM77Rf part; ligand mainly DP7 with some DP8

O=C(O)[C@H]1O[C@H](O[C@@H]2[C@H](O)[C@@H](O)[C@@H](O[C@@H]3[C@H](O)[C@@H](O)[C@@H](O[C@@H]4[C@H](O)[C@@H](O)[C@@H](O[C@@H]5[C@H](O)[C@@H](O)[C@@H](O[C@@H]6[C@H](O)[C@@H](O)[C@@H](O[C@@H]7[C@H](O)[C@@H](O)C(O)O[C@@H]7C(=O)O)O[C@@H]6C(=O)O)O[C@@H]5C(=O)O)O[C@@H]4C(=O)O)O[C@@H]3C(=O)O)O[C@@H]2C(=O)O)[C@H](O)[C@@H](O)[C@H]1O (some centres unmarked) [GalA_DP7]
Kd (diCBM77Rf): 1280 ± 100 µM | Kd (Janus lectin RSL-CBM77Rf): 103 ± 15 µM
